Results published in publication PMC6589325, “Evaluation of Anti-HIV-1 Integrase and Anti-Inflammatory Activities of Compounds from Betula alnoides Buch-Ham” (Advances in Pharmacological Sciences, 2019).
Where two headings read alike, the source gives them in different places.

How the values were obtained:
HIV-1 IN [1] = target: T1, HIV-1 IN (Human immunodeficiency virus type 1 group M subtype B, UniProt P04585); assay: HIV-1 IN inhibitory activity, multiplate integration assay (MIA); format: biochemical
T1 construct: using HIV-1 IN enzymes according to the multiplate integration assay (MIA)
Description: The anti-HIV IN activity of isolated compounds was determined in an in vitro model using HIV-1 IN enzymes according to the multiplate integration assay (MIA) as previously described. Briefly, a mixture (45 μL) composed of 12 μL of IN buffer (containing 150 mM 3-(N-morpholino)propanesulfonic acid, pH 7.2 (MOPS), 75 mM MnCl2, 5 mM dithiothreitol (DTT), 25% glycerol, and 500 μg/mL bovine serum albumin), 1 μL of 5 pmol/mL digoxigenin-labeled target DNA, and 32 μL of sterilized water was added into each well of a 96-well plate. Subsequently, 6 μL of sample solution in DMSO and 9 μL of a 1/5 dilution of the IN enzyme were added to each well and incubated at 37°C for 80 min. After washing the plate three times with PBS with 0.05% Tween 20 (PBST), 100 μL of 500 mU/mL alkaline phosphatase- (AP-) labeled anti-digoxigenin antibody was added and incubated at 37°C for 1 h. The plates were washed with PBS three times. Then, AP buffer (150 μL) containing 100 mM Tris-HCl (pH 9.5), 100 mM NaCl, 5 mM MgCl2, and 10 mM p-nitrophenyl phosphate was added to each well and incubated at 37°C for 1 h. Finally, the absorbance of p-nitrophenol, the final product of the integration reaction, was measured with a microplate reader (Rayto, RT-2100C) at a wavelength of 405 nm. Suramin, a polyanionic HIV-1 IN inhibitor, was used as a positive control.

[2] = system: LPS-induced nitric oxide production in RAW264.7 cells; assay: Inhibitory effect on LPS-induced nitric oxide (NO) production in RAW264.7 cells (Griess reagent); format: cell-based; details: for inhibition at 3 µM / inhibition at 10 µM / inhibition at 30 µM / inhibition at 100 µM: read-out: % Inhibition at various concentration (μM), NO production; for IC50: read-out: IC50, inhibition of LPS-induced NO production
Description: To evaluate the anti-inflammatory activity, an inhibitory effect on nitric oxide (NO) production was carried out according to the previous report described by Sudsai et al.. Briefly, RAW264.7 cells were seeded onto 96-well plates (1 × 10^5 cells/well) and were maintained to adhere at 37°C for 1 h in a CO2 incubator containing 5% CO2. They were then cultured in RPMI-1640 medium containing lipopolysaccharide (LPS, 100 ng/ml) together with the test compounds at various concentrations (3–100 μM). After 24 h of incubation, the nitrite (NO^2–) concentration in the culture medium was determined as an indicator of NO production using the Griess reagent to assay the accumulation of NO^2–, a stable metabolite of NO. The absorbance was measured using a microplate reader at 570 nm. In this study, NO synthase inhibitor (L-nitro-arginine, L-NA), nuclear translocation of NF-κB inhibitor (caffeic acid phenethyl ester, CAPE) and nonsteroidal anti-inflammatory drug, NSAID (indomethacin), were used as positive controls.

[3] = system: RAW264.7 macrophage cells; assay: Viability assay of RAW264.7 macrophage cells (MTT); details: 24 h, cytotoxic when viability less than 80% of control
Description: The cytotoxicity of the test compounds after 24 h of incubation was determined by the colorimetric method described by Sudsai et al.. A volume of 10 μl of MTT solution (5 mg/ml in PBS) was added to each well of 96-well plates and further incubated in a CO2 incubator for 4 h. The formazan products generated by MTT reduction were dissolved in DMSO. At last, the medium was removed, 100 μl of DMSO was then added to each well and thoroughly mixed by gently tapping on the test plate. The absorbance of formazan solution was measured at a wavelength of 570 nm using a microplate reader. The test compounds were considered to be cytotoxic when the viability of the compound-treated group was less than 80% of that in the control (1% DMSO-treated) group.

HIV-1 IN [4] = target: T1, HIV-1 IN; details: cited from earlier work; for IC50: read-out: IC50 against HIV-1 IN (converted); for Effect against HIV-1 IN: isolated from Coleus parvifolius
[5] = read-out: % Inhibition at various concentrations
[6] = mean ± S.E.M. of four determinations, read-out: IC50, anti-HIV-1 integrase activity
[7] = Mus musculus, RAW264.7, 3 μM, LPS 100 ng/ml, 24 h
[8] = Mus musculus, RAW264.7, 10 μM, LPS 100 ng/ml, 24 h
[9] = Mus musculus, RAW264.7, 30 μM, LPS 100 ng/ml, 24 h
[10] = Mus musculus, RAW264.7, 100 μM, LPS 100 ng/ml, 24 h
[11] = Mus musculus, RAW264.7 cells, LPS 100 ng/ml, 24 h

SMILES | inhibition at 10 µM (HIV-1 IN [1]; [5]) [%] | inhibition at 30 µM (HIV-1 IN [1]; [5]) [%] | inhibition at 100 µM (HIV-1 IN [1]; [5]) [%] | IC50 (HIV-1 IN [1]; [6]) [µM] | inhibition at 3 µM [2, 7] [%] | inhibition at 10 µM [2, 8] [%] | inhibition at 30 µM [2, 9] [%] | inhibition at 100 µM [2, 10] [%] | IC50 [2, 11] [µM] | other results
C=C(C)[C@@H]1CC[C@]2(C)CC[C@]3(C)[C@H](CC[C@@H]4[C@@]5(C)CC[C@H](O)C(C)(C)[C@@H]5CC[C@]43C)[C@@H]12 [Lupeol (3), lupeol] | 12.2 ± 1.3 | 25.9 ± 2 | 40.6 ± 1.8 | > 100 | 6 ± 1.7 | 11.4 ± 2.7 | 23.4 ± 1.9 | 78.2 ± 1 | 47.3 ± 1 | IC50, anti-HIV-1 integrase activity (HIV-1 IN [1]; mean ± S.E.M. of four determinations): inactive; Cytotoxicity to RAW 264.7 cells [3]: caused cytotoxicity
O=C(O)c1ccc(O)c(O)c1 [protocatechuic acid] |  |  |  |  |  |  |  |  |  | % inhibition of HIV-1 IN (HIV-1 IN [4]; 100 μM): 46.0%
C=C(C)[C@@H]1CC[C@]2(C(=O)O)CC[C@]3(C)[C@H](CC[C@@H]4[C@@]5(C)CC[C@H](O)C(C)(C)[C@@H]5CC[C@]43C)[C@@H]12 [Betulinic acid (1), betulinic acid] | 39 ± 2.3 | 53.2 ± 1.2 | 65.6 ± 2.1 | 24.8 ± 1.3 | 14.6 ± 2.3 | 22.1 ± 1.2 | 49.4 ± 3.2 | 79.5 ± 1.7 | 31 ± 1.9 | 
Oc1cc(O)c2c(c1)CCc1cc(O)c(O)cc1-2 [2,4,6,7-tetrahydroxy 9,10-dihydrophenanthrene] |  |  |  |  |  |  |  |  |  | IC50 (HIV-1 IN [4]; from bulbils of Dioscorea bulbifera): 14.2 µM
O=C(/C=C/c1ccc(O)c(O)c1)OCCc1ccccc1 [CAPE, caffeic acid phenethyl ester, reference compound] |  |  |  |  | 22.7 ± 3.1 | 48.6 ± 0.7 | 66.8 ± 0.5 | 85.9 ± 1 | 12.3 ± 0.8 | 
CN1C[C@H](O)C[C@H]1C(=O)O [N-methyl-trans-4-hydroxy-L-proline] |  |  |  |  |  |  |  |  |  | IC50 (HIV-1 IN [4]; from Aglaia andamanica leaves): 81.3 µM
O=C(/C=C/c1ccc(O)cc1)CC(=O)/C=C/c1ccc(O)cc1 [bisdemethoxycurcumin] |  |  |  |  |  |  |  |  |  | IC50 (HIV-1 IN [4]; from rhizomes of Boesenbergia kingii): 47.7 µM
Cc1ccc(C(=O)Nc2ccc(S(=O)(=O)O)c3cc(S(=O)(=O)O)cc(S(=O)(=O)O)c23)cc1NC(=O)c1cccc(NC(=O)Nc2cccc(C(=O)Nc3cc(C(=O)Nc4ccc(S(=O)(=O)O)c5cc(S(=O)(=O)O)cc(S(=O)(=O)O)c45)ccc3C)c2)c1 [Suramin, reference compound] | 70.9 ± 1.5 | 93.3 ± 1.3 | 99.9 ± 1.7 | 2.8 ± 0.1 |  |  |  |  |  | inhibition at 1 µM (HIV-1 IN [1]; 1 μM, read-out: % Inhibition at various concentrations): 32.1 ± 0.6%; inhibition at 3 µM (HIV-1 IN [1]; 3 μM, read-out: % Inhibition at various concentrations): 50.3 ± 1.6%; IC50 (HIV-1 IN [1]; mean ± S.E.M. of four determinations, read-out: IC50, anti-HIV-1 IN activity of B. alnoides extract and its fractions (converted)): 3.01 µM
CC1(C)CC[C@]2(C(=O)O)CC[C@]3(C)C(=CC[C@@H]4[C@@]5(C)CC[C@H](O)C(C)(C)[C@@H]5CC[C@]43C)[C@@H]2C1 [Oleanolic acid (4), oleanolic acid] | 33.4 ± 1.8 | 49.1 ± 2.2 | 65.5 ± 1.5 |  | 10.9 ± 1.8 | 18.4 ± 1.2 | 28.2 ± 3.2 | 63.4 ± 1 | 62.8 ± 3.6 | IC50 (HIV-1 IN [1]; IC50, anti-HIV-1 integrase activity, mean ± S.E.M. of four determinations): 30.3 ± 1.3 µM
COc1ccc2c(c1)c(CC(=O)O)c(C)n2C(=O)c1ccc(Cl)cc1 [Indomethacin, indomethacin, reference compound] |  |  |  |  | 32 ± 2.6 | 43.8 ± 1.2 | 54.1 ± 2 | 79 ± 1.4 | 17.6 ± 1.6 | 
NC(=NCCC[C@H](N)C(=O)O)N[N+](=O)[O-] [L-NA, L-nitro-arginine, reference compound] |  |  |  |  |  |  |  |  |  | % Inhibition at various concentration (μM), NO production ([2]; 3 μM, LPS 100 ng/ml, 24 h): 19.3 ± 4.7%; % Inhibition at various concentration (μM), NO production ([2]; 10 μM, LPS 100 ng/ml, 24 h): 22.1 ± 1.9%; % Inhibition at various concentration (μM), NO production ([2]; 30 μM, LPS 100 ng/ml, 24 h): 32.6 ± 3.5%; % Inhibition at various concentration (μM), NO production ([2]; 100 μM, LPS 100 ng/ml, 24 h): 79.7 ± 4.8%; IC50 ([2]; RAW264.7 cells, LPS 100 ng/ml, 24 h): 40.4 ± 6.1 µM
C=C(C)[C@@H]1CC[C@]2(CO)CC[C@]3(C)[C@H](CC[C@@H]4[C@@]5(C)CC[C@H](O)C(C)(C)[C@@H]5CC[C@]43C)[C@@H]12 [Betulin (2), betulin] | 41.2 ± 1.5 | 57.6 ± 1.2 | 70.7 ± 2.1 | 17.7 ± 0.6 |  |  |  |  |  | inhibition at 3 µM ([2]; Mus musculus, RAW264.7, 24 h): 2.9 ± 1.9%; inhibition at 10 µM ([2]; Mus musculus, RAW264.7, 24 h): 13 ± 1.6%; inhibition at 30 µM ([2]; Mus musculus, RAW264.7, 24 h): 58 ± 1.1%; inhibition at 100 µM ([2]; Mus musculus, RAW264.7, 24 h): 81.8 ± 1.2%; IC50 ([2]; Mus musculus, RAW264.7, 24 h): 30.1 ± 0.3 µM; Cytotoxicity to RAW 264.7 cells [3]: caused cytotoxicity
COc1cc(O)c2c(=O)cc(-c3ccc(O)c(O)c3)oc2c1 [luteolin 7-methyl ether] |  |  |  |  |  |  |  |  |  | Effect against HIV-1 IN (HIV-1 IN [4]): potent
Oc1cc(O)c2c(c1)O[C@H](c1ccc(O)c(O)c1)[C@@H](O)C2 [(+)-Catechin] |  |  |  |  |  |  |  |  |  | IC50 (HIV-1 IN [4]; isolated from Albizia procera bark): 46.3 µM
C[C@H]1[C@H](C)CC[C@]2(C(=O)O)CC[C@]3(C)C(=CC[C@@H]4[C@@]5(C)CC[C@H](O)C(C)(C)[C@@H]5CC[C@]43C)[C@H]12 [Ursolic acid (5), ursolic acid] | 31.6 ± 0.9 | 48.5 ± 1.2 | 60.2 ± 2.1 | 35 ± 1 | 5.4 ± 2.3 | 10.2 ± 3.2 | 13.6 ± 3.2 | 67.1 ± 1.8 | 68.7 ± 5.9 | 
O=c1cc(-c2ccc(O)c(O)c2)oc2cc(O)cc(O)c12 [luteolin] |  |  |  |  |  |  |  |  |  | Effect against HIV-1 IN (HIV-1 IN [4]): potent
